Measured values from ChEMBL document CHEMBL2177100, “Structural optimization and structure-activity relationships of N2-(4-(4-Methylpiperazin-1-yl)phenyl)-N8-phenyl-9H-purine-2,8-diamine derivatives, a new class of reversible kinase inhibitors targeting both EGFR-activating and resistance mutations” (J Med Chem, 2012).
The source made the active and inactive calls. No cut-off for these calls is given here.

What was measured:
[1] = Binding affinity to […] EGFR L747-S752del, Sins mutant by KINOMEscan kinase binding assay
[2] = Binding affinity to […] EGFR 747-E749del, A750P mutant by KINOMEscan kinase binding assay
[3] = Binding affinity to […] EGFR […] mutant by KINOMEscan kinase binding assay
[4] = test system: NCI-H1975; experiment: Cytotoxicity against human NCI-H1975 cells incubated for 72 hrs by MTT assay; type: functional, cell-based; conditions: NCI-H1975, 72 h
[5] = Cytotoxicity against human HCC827 cells incubated for 72 hrs by MTT assay; type: functional, cell-based; conditions: HCC827, 72 h
[6] = test system: NCI-H1975; experiment: Antitumor activity against human NCI-H1975 cells xenografted in BALB/c mouse assessed as inhibition of tumor growth at 25 mg/kg, po qd; type: functional; conditions: read-out: TGI
[7] = test system: HCC827; experiment: Antitumor activity against human HCC827 cells xenografted in BALB/c mouse assessed as complete tumor regression at 5 mg/kg, po qd measured within 15 days compound treatment; type: functional, organism-based; design: dose 5 mg/kg
[8] = Cmax in Sprague-Dawley rat at 20 mg/kg, po; type: ADME, organism-based; design: dose 20 mg/kg, route oral; conditions: in vivo
[9] = Clearance in Sprague-Dawley rat at 20 mg/kg, po; type: ADME, organism-based; design: dose 20 mg/kg, route oral; conditions: in vivo
[10] = test system: Rattus norvegicus; experiment: Volume of distribution at steady state in Sprague-Dawley rat at 20 mg/kg, po; type: ADME, organism-based; design: dose 20 mg/kg, route oral; conditions: in vivo
[11] = Tmax in Sprague-Dawley rat at 20 mg/kg, po; type: ADME, organism-based; design: dose 20 mg/kg, route oral; conditions: in vivo
[12] = AUC (0 to 24 hrs) in Sprague-Dawley rat at 20 mg/kg, po; type: ADME, organism-based; design: time < 24 hr, dose 20 mg/kg, route oral; conditions: plasma
[13] = test system: Mus musculus; experiment: Inhibition of EGFR phosphorylation in human NCI-H1975 cells xenografted in BALB/c mouse at 50 mg/kg/day, po for 10 days by immunohistochemistry; type: functional, organism-based
[14] = test system: Mus musculus; experiment: Inhibition of EGFR phosphorylation in human HCC827 cells xenografted in BALB/c mouse at 1 mg/kg/day, po for 3 days by immunohistochemistry; type: functional, organism-based
[15] = test system: Mus musculus; experiment: Toxicity in human NCI-H1975 cells xenografted BALB/c mouse assessed as body weight loss at 50 mg/kg, po qd; type: organism-based; design: dose 50 mg/kg, route oral; conditions: in vivo
[16] = test system: NCI-H1975; experiment: Antitumor activity against human NCI-H1975 cells xenografted in BALB/c mouse assessed as inhibition of tumor growth administered orally once daily; type: functional, cell-based
[17] = test system: NCI-H1975; experiment: Antitumor activity against human NCI-H1975 cells xenografted in BALB/c mouse assessed as inhibition of tumor growth at 50 mg/kg, po qd; type: functional; conditions: read-out: TGI
[18] = test system: HCC827; experiment: Antitumor activity against human HCC827 cells xenografted in BALB/c mouse assessed as reduction tumor volume at 5 mg/kg, po qd; type: functional, organism-based; design: dose 5 mg/kg
[19] = test system: HCT-116; experiment: Cytotoxicity against human HCT116 cells incubated for 72 hrs by MTT assay; type: functional, cell-based; conditions: HCT-116, 72 h
[20] = test system: MDA-MB-231; experiment: Cytotoxicity against human MDA-MB-231 cells incubated for 72 hrs by MTT assay; type: functional, cell-based; conditions: MDA-MB-231, 72 h
[21] = test system: A-431; experiment: Cytotoxicity against human A431 cells incubated for 72 hrs by MTT assay; type: functional, cell-based; conditions: A-431, 72 h
[22] = test system: Calu-3; experiment: Cytotoxicity against human Calu3 cells incubated for 72 hrs by MTT assay; type: functional, cell-based; conditions: Calu-3, 72 h
[23] = test system: PC-9; experiment: Cytotoxicity against human PC9 cells incubated for 72 hrs by MTT assay; type: functional, cell-based; conditions: PC-9, 72 h
[24] = target: Mitogen-activated protein kinase 12 (Homo sapiens, UniProt P53778); experiment: Inhibition of human recombinant p38gamma by radiometric kinase assay
[25] = target: Mitogen-activated protein kinase 14 (Homo sapiens, UniProt Q16539); experiment: Inhibition of human recombinant p38alpha by radiometric kinase assay
[26] = target: Serine/threonine-protein kinase WNK1 (Homo sapiens, UniProt Q9H4A3); experiment: Inhibition of human recombinant WNK1 by radiometric kinase assay
[27] = target: Vascular endothelial growth factor receptor 2 (Homo sapiens, UniProt P35968); experiment: Inhibition of human recombinant VEGFR2 by radiometric kinase assay
[28] = Inhibition of human recombinant S6K by radiometric kinase assay
[29] = target: Non-receptor tyrosine-protein kinase TYK2 (Homo sapiens, UniProt P29597); experiment: Inhibition of human recombinant TYK2 by radiometric kinase assay
Non-receptor tyrosine-protein kinase TYK2, sequence (P29597 whole entry): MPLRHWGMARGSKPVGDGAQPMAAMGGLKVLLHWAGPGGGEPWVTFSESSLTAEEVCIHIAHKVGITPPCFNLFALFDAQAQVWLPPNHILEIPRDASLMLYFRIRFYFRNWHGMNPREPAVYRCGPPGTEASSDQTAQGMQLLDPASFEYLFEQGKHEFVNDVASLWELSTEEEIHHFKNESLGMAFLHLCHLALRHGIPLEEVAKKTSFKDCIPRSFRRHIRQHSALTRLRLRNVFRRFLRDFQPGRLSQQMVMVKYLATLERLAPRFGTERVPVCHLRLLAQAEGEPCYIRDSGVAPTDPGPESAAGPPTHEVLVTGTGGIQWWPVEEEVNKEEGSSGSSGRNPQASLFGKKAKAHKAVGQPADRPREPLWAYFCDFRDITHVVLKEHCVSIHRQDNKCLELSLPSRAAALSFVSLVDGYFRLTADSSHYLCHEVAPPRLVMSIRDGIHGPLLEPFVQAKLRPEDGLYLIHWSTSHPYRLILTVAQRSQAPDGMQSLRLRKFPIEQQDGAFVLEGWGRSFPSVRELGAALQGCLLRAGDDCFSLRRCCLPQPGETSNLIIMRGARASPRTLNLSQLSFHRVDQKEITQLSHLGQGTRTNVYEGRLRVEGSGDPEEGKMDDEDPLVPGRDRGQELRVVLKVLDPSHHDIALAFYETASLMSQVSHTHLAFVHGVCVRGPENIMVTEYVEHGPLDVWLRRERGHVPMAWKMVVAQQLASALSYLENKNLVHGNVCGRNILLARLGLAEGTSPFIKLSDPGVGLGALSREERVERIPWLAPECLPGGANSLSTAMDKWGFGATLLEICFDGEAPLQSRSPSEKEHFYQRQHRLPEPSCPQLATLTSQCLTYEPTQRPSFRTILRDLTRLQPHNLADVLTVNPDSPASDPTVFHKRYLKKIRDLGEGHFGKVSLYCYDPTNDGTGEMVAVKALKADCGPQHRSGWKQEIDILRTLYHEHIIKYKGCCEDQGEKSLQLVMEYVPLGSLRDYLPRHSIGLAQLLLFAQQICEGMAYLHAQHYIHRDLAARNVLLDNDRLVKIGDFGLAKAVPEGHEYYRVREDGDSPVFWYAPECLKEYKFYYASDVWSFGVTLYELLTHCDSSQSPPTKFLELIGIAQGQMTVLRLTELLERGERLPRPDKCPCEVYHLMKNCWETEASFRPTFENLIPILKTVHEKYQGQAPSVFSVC

[30] = target: Serine/threonine-protein kinase PLK1 (Homo sapiens, UniProt P53350); experiment: Inhibition of human recombinant PLK1 by radiometric kinase assay
Serine/threonine-protein kinase PLK1, sequence (P53350 whole entry): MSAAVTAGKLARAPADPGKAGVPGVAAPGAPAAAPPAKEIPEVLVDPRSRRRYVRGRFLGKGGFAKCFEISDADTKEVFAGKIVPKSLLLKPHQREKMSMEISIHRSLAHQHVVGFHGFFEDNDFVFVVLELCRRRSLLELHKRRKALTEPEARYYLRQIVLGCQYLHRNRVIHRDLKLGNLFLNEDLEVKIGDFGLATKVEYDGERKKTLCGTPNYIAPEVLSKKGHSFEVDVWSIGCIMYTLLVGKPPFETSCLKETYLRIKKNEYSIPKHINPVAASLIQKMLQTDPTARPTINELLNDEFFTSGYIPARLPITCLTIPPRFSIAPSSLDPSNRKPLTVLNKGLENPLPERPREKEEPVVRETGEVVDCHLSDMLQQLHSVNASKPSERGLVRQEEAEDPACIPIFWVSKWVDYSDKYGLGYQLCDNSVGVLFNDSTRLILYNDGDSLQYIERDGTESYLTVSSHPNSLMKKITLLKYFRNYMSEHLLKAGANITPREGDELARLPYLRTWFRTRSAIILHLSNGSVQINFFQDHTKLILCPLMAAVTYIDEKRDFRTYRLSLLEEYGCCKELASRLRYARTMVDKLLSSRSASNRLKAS

[31] = target: Serine/threonine-protein kinase N1 (Homo sapiens, UniProt Q16512); experiment: Inhibition of human recombinant PKN1 by radiometric kinase assay
[32] = target: RAC-alpha serine/threonine-protein kinase (Homo sapiens, UniProt P31749); experiment: Inhibition of human recombinant PKBalpha by radiometric kinase assay
RAC-alpha serine/threonine-protein kinase, sequence (P31749 whole entry): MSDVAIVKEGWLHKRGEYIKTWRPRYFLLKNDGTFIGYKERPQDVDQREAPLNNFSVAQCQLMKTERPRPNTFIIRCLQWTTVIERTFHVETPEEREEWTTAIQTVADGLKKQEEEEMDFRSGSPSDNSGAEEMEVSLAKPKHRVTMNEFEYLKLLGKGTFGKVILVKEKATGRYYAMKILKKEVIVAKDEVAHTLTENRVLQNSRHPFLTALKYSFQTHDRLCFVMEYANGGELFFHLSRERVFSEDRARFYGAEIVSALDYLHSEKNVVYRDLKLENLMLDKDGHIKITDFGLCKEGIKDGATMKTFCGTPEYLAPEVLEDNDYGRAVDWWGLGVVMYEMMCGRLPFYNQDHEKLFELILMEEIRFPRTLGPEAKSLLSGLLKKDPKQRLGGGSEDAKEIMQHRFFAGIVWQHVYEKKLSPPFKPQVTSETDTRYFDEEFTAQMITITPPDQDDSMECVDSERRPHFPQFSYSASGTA

[33] = target: Protein kinase C alpha type (Homo sapiens, UniProt P17252); experiment: Inhibition of human recombinant PKCalpha by radiometric kinase assay
[34] = Inhibition of human recombinant PKA by radiometric kinase assay
[35] = target: Serine/threonine-protein kinase pim-2 (Homo sapiens, UniProt Q9P1W9); experiment: Inhibition of human recombinant PIM2 by radiometric kinase assay
Serine/threonine-protein kinase pim-2, sequence (Q9P1W9 whole entry): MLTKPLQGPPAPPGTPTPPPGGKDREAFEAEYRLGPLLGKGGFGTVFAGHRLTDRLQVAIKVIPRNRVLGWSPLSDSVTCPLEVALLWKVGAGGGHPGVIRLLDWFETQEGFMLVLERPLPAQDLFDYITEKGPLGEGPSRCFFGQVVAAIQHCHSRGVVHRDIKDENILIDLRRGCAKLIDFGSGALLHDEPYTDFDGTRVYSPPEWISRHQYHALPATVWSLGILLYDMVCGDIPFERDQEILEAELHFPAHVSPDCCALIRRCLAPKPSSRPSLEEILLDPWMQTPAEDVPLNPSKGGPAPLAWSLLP

[36] = target: MAP kinase-interacting serine/threonine-protein kinase 2 (Homo sapiens, UniProt Q9HBH9); experiment: Inhibition of human recombinant MNK2 by radiometric kinase assay
MAP kinase-interacting serine/threonine-protein kinase 2, sequence (Q9HBH9 whole entry): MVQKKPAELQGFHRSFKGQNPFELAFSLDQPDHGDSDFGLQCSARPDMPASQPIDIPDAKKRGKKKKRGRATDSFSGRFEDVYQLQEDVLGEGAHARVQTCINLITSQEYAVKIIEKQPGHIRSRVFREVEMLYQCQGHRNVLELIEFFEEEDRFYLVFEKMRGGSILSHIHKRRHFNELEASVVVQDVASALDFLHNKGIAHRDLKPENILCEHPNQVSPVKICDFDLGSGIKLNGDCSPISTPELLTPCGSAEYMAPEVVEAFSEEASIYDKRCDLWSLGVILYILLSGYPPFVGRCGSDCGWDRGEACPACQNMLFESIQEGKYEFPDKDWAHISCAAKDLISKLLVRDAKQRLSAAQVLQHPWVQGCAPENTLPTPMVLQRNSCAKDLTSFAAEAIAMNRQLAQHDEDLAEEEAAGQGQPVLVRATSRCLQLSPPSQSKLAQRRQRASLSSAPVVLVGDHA

[37] = target: MAP kinase-activated protein kinase 5 (Homo sapiens, UniProt Q8IW41); experiment: Inhibition of human recombinant MK5 by radiometric kinase assay
[38] = target: MAP kinase-activated protein kinase 2 (Homo sapiens, UniProt P49137); experiment: Inhibition of human recombinant MK2 by radiometric kinase assay
[39] = target: Mitogen-activated protein kinase 9 (Homo sapiens, UniProt P45984); experiment: Inhibition of human recombinant JNK2 by radiometric kinase assay
Mitogen-activated protein kinase 9, sequence (P45984 whole entry): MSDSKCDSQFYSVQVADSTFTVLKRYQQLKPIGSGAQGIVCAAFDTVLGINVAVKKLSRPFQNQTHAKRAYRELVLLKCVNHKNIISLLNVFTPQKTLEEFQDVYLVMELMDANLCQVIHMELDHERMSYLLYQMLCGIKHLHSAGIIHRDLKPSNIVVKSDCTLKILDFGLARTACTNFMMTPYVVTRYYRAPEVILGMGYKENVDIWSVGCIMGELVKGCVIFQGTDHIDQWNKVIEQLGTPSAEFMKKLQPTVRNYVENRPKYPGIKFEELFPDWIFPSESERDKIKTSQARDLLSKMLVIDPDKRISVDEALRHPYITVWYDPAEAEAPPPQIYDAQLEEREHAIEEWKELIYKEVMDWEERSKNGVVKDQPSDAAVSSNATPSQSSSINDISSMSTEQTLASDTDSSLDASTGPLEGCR

[40] = target: Tyrosine-protein kinase JAK1 (Homo sapiens, UniProt P23458); experiment: Inhibition of human recombinant JAK1 by radiometric kinase assay
[41] = Inhibition of human recombinant CaMK2 by radiometric kinase assay
[42] = Inhibition of human recombinant CK1 by radiometric kinase assay
[43] = target: Proto-oncogene tyrosine-protein kinase Src (Homo sapiens, UniProt P12931); experiment: Inhibition of human recombinant SRC by radiometric kinase assay
Proto-oncogene tyrosine-protein kinase Src, sequence (P12931 2-536 limits assumed): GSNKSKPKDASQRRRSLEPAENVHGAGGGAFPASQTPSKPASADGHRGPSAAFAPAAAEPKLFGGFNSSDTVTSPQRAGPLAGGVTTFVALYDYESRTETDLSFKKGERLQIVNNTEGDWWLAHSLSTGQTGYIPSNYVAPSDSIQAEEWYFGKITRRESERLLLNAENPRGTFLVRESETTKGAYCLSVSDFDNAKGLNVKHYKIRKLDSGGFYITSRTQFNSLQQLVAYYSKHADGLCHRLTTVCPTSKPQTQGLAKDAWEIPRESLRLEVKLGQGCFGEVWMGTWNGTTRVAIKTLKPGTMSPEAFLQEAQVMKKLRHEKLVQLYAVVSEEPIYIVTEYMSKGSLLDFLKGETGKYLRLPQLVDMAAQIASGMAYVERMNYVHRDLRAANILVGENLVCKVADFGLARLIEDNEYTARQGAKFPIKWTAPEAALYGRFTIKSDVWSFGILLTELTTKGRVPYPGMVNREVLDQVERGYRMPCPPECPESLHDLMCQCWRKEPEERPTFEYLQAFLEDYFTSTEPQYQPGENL

[44] = target: Hepatocyte growth factor receptor (Homo sapiens, UniProt P08581); experiment: Inhibition of human recombinant MET by radiometric kinase assay
[45] = target: Mast/stem cell growth factor receptor Kit (Homo sapiens, UniProt P10721); experiment: Inhibition of human recombinant KIT by radiometric kinase assay
Mast/stem cell growth factor receptor Kit, sequence (P10721 whole entry): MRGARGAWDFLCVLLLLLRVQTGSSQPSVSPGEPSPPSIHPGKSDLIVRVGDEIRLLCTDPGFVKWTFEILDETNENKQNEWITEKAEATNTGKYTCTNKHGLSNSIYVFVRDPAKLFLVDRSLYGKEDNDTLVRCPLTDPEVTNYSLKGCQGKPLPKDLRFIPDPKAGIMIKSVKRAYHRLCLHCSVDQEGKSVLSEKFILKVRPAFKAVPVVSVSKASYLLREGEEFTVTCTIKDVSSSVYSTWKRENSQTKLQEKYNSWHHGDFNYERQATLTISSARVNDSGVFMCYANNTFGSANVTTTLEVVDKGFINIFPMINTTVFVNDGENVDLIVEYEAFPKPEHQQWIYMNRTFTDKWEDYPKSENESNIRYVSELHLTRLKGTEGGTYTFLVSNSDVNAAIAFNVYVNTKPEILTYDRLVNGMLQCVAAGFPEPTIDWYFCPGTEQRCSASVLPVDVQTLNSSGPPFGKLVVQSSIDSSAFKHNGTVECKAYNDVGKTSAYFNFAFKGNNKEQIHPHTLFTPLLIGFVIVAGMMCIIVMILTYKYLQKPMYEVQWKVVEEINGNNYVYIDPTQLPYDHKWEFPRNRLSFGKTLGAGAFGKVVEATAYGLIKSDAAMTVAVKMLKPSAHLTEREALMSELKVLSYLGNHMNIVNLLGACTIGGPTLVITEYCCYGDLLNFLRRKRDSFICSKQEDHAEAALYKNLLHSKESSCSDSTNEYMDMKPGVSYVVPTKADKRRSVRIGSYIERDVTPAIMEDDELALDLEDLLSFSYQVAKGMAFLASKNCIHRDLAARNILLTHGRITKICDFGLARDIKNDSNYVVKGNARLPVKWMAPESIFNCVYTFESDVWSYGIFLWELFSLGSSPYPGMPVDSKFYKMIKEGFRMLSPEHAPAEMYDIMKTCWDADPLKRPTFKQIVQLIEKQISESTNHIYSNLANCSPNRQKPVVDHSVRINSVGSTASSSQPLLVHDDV

[46] = target: Insulin receptor (Homo sapiens, UniProt P06213); experiment: Inhibition of human recombinant INSR by radiometric kinase assay
[47] = target: Insulin-like growth factor 1 receptor (Homo sapiens, UniProt P08069); experiment: Inhibition of human recombinant IGF1R by radiometric kinase assay
[48] = target: Receptor tyrosine-protein kinase erbB-4 (Homo sapiens, UniProt Q15303); experiment: Inhibition of human recombinant ERBB4 by radiometric kinase assay
[49] = target: Cyclin-dependent kinase 2 (Homo sapiens, UniProt P24941); experiment: Inhibition of human recombinant CDK2 by radiometric kinase assay

Which Kd [1] does the source give for `CN1CCN(c2ccc(Nc3ncc4nc(Nc5ccccc5)n(C5CCCC5)c4n3)cc2)CC1` here?
The Kd was 0.0005 µM.

And the Kd [2]?
Its Kd is 0.0004 µM.

And the Kd [3]?
Its Kd is 0.0005 µM.

What about the IC50 [4] of the same compound?
The IC50 was 0.36 µM.

What about the IC50 [5] of the same compound?
The IC50 was less than 10 pM.

And the inhibition in vivo at 25 mg/kg [6]?
The inhibition in vivo at 25 mg/kg was 35%.

What about the Activity [7] of the same compound?
The Activity was “Active”.

What about the Cmax [8] of the same compound?
The Cmax was 230 ng/mL.

And the CL/F [9]?
Its CL/F is 162 mL/min/kg.

What about the Vdss [10] of the same compound?
The Vdss was 63.35 L/kg.

And the Tmax [11]?
Its Tmax is 1 h.

What about the AUC(0-t) at 24 h [12] of the same compound?
Its AUC(0-t) at 24 h is 2140 ng·h/mL.

What about the inhibition [13] of the same compound?
Its inhibition is “Active”.

What about the inhibition [14] of the same compound?
The inhibition was “Active”.

And the Activity [15]?
Its Activity is 4.4%.

What about the TGI [16] of the same compound?
Its TGI is “Dose-dependent effect”.

And the inhibition in vivo at 50 mg/kg [17]?
Its inhibition in vivo at 50 mg/kg is 62%.

What about the TGI [18] of the same compound?
The TGI was “Active”.

And the IC50 [19]?
The IC50 was 3 µM.

And the IC50 [20]?
The IC50 was 5 µM.

And the IC50 [21]?
The IC50 was 0.12 µM.

What about the IC50 [22] of the same compound?
The IC50 was 0.12 µM.

And the IC50 [23]?
The IC50 was 0.00022 µM.

What about the IC50 [24] of the same compound?
Its IC50 is greater than 10 µM.

And the IC50 [25]?
Its IC50 is 0.23 µM.

What about the IC50 [26] of the same compound?
Its IC50 is greater than 10 µM.

What about the IC50 [27] of the same compound?
The IC50 was 0.02 µM.

What about the IC50 [28] of the same compound?
The IC50 was 9.4 µM.

And the IC50 [29]?
Its IC50 is 6.7 µM.

What about the IC50 [30] of the same compound?
Its IC50 is greater than 10 µM.

And the IC50 [31]?
The IC50 was 6.1 µM.

What about the IC50 [32] of the same compound?
Its IC50 is greater than 10 µM.

And the IC50 [33]?
Its IC50 is 6.7 µM.

What about the IC50 [34] of the same compound?
The IC50 was 1.1 µM.

What about the IC50 [35] of the same compound?
The IC50 was greater than 10 µM.

What about the IC50 [36] of the same compound?
The IC50 was 3.2 µM.

What about the IC50 [37] of the same compound?
Its IC50 is greater than 10 µM.

And the IC50 [38]?
Its IC50 is greater than 10 µM.

What about the IC50 [39] of the same compound?
The IC50 was 1.5 µM.

What about the IC50 [40] of the same compound?
The IC50 was 3.3 µM.

And the IC50 [41]?
The IC50 was greater than 10 µM.

And the IC50 [42]?
Its IC50 is greater than 10 µM.

And the IC50 [43]?
Its IC50 is 0.29 µM.

And the IC50 [44]?
Its IC50 is 6.4 µM.

And the IC50 [45]?
Its IC50 is 0.54 µM.

And the IC50 [46]?
The IC50 was greater than 10 µM.

What about the IC50 [47] of the same compound?
Its IC50 is greater than 10 µM.

And the IC50 [48]?
Its IC50 is 0.03 µM.

What about the IC50 [49] of the same compound?
The IC50 was greater than 10 µM.
